These results are taken from ChEMBL document CHEMBL1201862, “PubChem BioAssay data set” (2004).

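Exposure lasted 48 hours, with cells grown in 96-well plates and compounds tested at five concentrations. GI50: concentration for 50% inhibition of growth.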 Active and inactive are the calls of the source. Cut-off read from the data, not from the text of the source: active = GI50 up to about 1.1 µM and inactive = higher.

Among the test systems are SNB-75; OVCAR-4; K562; BT-549; MDA-MB-231; SR; SF-539; MDA-N; SK-MEL-28; RXF 393; NCI-H460; NCI-H23; UO-31; SF-268; M14; U-251; HOP-62; SN12C; HCC 2998; UACC-257.
What all share (experiment): NCI tumour cell line growth inhibition, 48 h

As for `CC(C)(C)c1ccc(O)c(C[N+](C)(C)C)c1`, the GI50 is > 100 µM (inactive) with SNB-75; > 100 µM (inactive) in the assay on OVCAR-4; 95.5 µM (inactive) in the assay with K562; > 100 µM (inactive) in the assay on BT-549; > 100 µM (inactive) in the assay on MDA-MB-231; > 100 µM (inactive) with SR. Besides, the GI50 with SF-539, with MDA-N, in the assay with SK-MEL-28, in the assay with RXF 393, with NCI-H460 and in the assay on NCI-H23 was > 100 µM (inactive) in each case. In addition, the GI50 in the assay on UO-31, in the assay with SF-268, with M14, with U-251, in the assay on HOP-62 and with SN12C was > 100 µM (inactive) in each case.
As for `CC1(Cc2cc3c(cc2C2(c4ccc([N+](=O)[O-])cc4)OCCO2)OCO3)OCCO1`, the GI50 in the assay with OVCAR-4 was 50.2 µM (inactive); in the assay with K562, 61.9 µM (inactive); with BT-549, 29.6 µM (inactive); in the assay on MDA-MB-231, 52.6 µM (inactive); in the assay on SF-539, > 100 µM (inactive); in the assay with HCC 2998, > 100 µM (inactive). The GI50 with MDA-N was > 100 µM (inactive); in the assay with UACC-257, 90.4 µM (inactive); in the assay with SK-MEL-28, > 100 µM (inactive); with RXF 393 it was 86.1 µM (inactive); in the assay with NCI-H460 it was 59.8 µM (inactive); with NCI-H23, 55.2 µM (inactive). The GI50 is 34.3 µM (inactive) in the assay on UO-31; > 100 µM (inactive) with SF-268; > 100 µM (inactive) with M14; 71.3 µM (inactive) in the assay with U-251; > 100 µM (inactive) in the assay with HOP-62; > 100 µM (inactive) in the assay with SN12C.
For the compound `NNC(=O)Cn1c2ccc(Br)cc2c2nc3ccccc3nc21`, the GI50 is > 100 µM (inactive) in the assay with SNB-75; 33.8 µM (inactive) with K562; > 100 µM (inactive) in the assay with BT-549; > 100 µM (inactive) in the assay with MDA-MB-231; > 100 µM (inactive) in the assay on SR; > 100 µM (inactive) in the assay on SF-539. Further, the GI50 in the assay with MDA-N is > 100 µM (inactive); in the assay with UACC-257, 76.4 µM (inactive); in the assay with SK-MEL-28, 47.8 µM (inactive); with RXF 393, 23.2 µM (inactive); in the assay with NCI-H23, 20.4 µM (inactive); in the assay on UO-31, 19.9 µM (inactive). The GI50 was > 100 µM (inactive) in the assay with SF-268; > 100 µM (inactive) with M14; 43.7 µM (inactive) with U-251; 19.8 µM (inactive) in the assay on HOP-62; > 100 µM (inactive) with SN12C.
Consider `COc1ccccc1OCC(=N/NC(=O)c1ccncc1)/N=C/c1cccnc1`, for which the GI50 in the assay with SNB-75 was 36.5 µM (inactive); in the assay on OVCAR-4, > 100 µM (inactive); in the assay on K562, > 100 µM (inactive); in the assay with BT-549, > 100 µM (inactive); in the assay on MDA-MB-231 it was > 100 µM (inactive); in the assay with SF-539, > 100 µM (inactive). In addition, the GI50 in the assay on HCC 2998, in the assay with MDA-N, in the assay with UACC-257, with SK-MEL-28, in the assay on RXF 393 and with NCI-H460 was > 100 µM (inactive) each time. The GI50 in the assay on NCI-H23, in the assay on SF-268, with M14, in the assay with U-251 and in the assay with HOP-62 was > 100 µM (inactive) each time.
Consider `Cc1cc(S(=O)(=O)N/C(=C(\C#N)C(=O)c2ccccc2)[n+]2ccc(N(C)C)cc2)c([S-])cc1Cl`, for which the GI50 is 69.8 µM (inactive) with OVCAR-4; > 100 µM (inactive) in the assay with K562; > 100 µM (inactive) in the assay on BT-549; > 100 µM (inactive) in the assay with MDA-MB-231; 64.9 µM (inactive) in the assay on SR; > 100 µM (inactive) in the assay with SF-539. Further, the GI50 in the assay on MDA-N, in the assay with UACC-257, with SK-MEL-28, in the assay on RXF 393, with NCI-H460 and with NCI-H23 was > 100 µM (inactive) in each case. The GI50 with UO-31, with SF-268, in the assay with M14, in the assay on U-251, in the assay with HOP-62 and with SN12C was > 100 µM (inactive) in each case.
Turning to `COc1ccc2c3c1O[C@H]1C(O)CCC4(O)[C@@H](C2)NCC[C@]314` (some centres not stated), the GI50 in the assay with OVCAR-4, in the assay with K562, in the assay on BT-549, in the assay with MDA-MB-231, with SR and in the assay with SF-539 was > 100 µM (inactive) throughout. For the same compound, the GI50 in the assay with MDA-N, in the assay with UACC-257, in the assay on SK-MEL-28, in the assay with NCI-H23, in the assay with UO-31 and with SF-268 was > 100 µM (inactive) throughout. The GI50 in the assay with M14, in the assay on U-251, with HOP-62 and in the assay on SN12C was > 100 µM (inactive) each time.
For `Nc1nc(Cl)c(N)c(NCC2(CO)CCC(CCc3ccccc3)C2)n1` (configuration not stated), the GI50 is 25.4 µM (inactive) with SNB-75; 17.3 µM (inactive) in the assay on OVCAR-4; 0.183 µM (active) in the assay with K562; 11.1 µM (inactive) with BT-549; 17 µM (inactive) in the assay with MDA-MB-231; 15.5 µM (inactive) with SF-539. For the same compound, the GI50 was 16.9 µM (inactive) with HCC 2998; 15.2 µM (inactive) with MDA-N; 0.461 µM (active) with UACC-257; 14.6 µM (inactive) in the assay with SK-MEL-28; 17.4 µM (inactive) in the assay on RXF 393; 12.6 µM (inactive) in the assay with NCI-H460. The GI50 is 0.0435 µM (active) in the assay on NCI-H23; 18.4 µM (inactive) in the assay on UO-31; 15.8 µM (inactive) in the assay on SF-268; 13.1 µM (inactive) in the assay with M14; 14.4 µM (inactive) in the assay with U-251; 17 µM (inactive) with HOP-62. For the same compound, in the assay with SN12C, the GI50 is 22.8 µM (inactive).
With `NNC(=O)c1nnn(N)c1S`, the GI50 in the assay with SNB-75 was > 100 µM (inactive); in the assay on OVCAR-4, > 100 µM (inactive); with K562, 36.8 µM (inactive); with BT-549, > 100 µM (inactive); in the assay on MDA-MB-231 it was 45.4 µM (inactive); in the assay with SF-539 it was > 100 µM (inactive). For the same compound, the GI50 in the assay on HCC 2998, in the assay with MDA-N, in the assay on UACC-257, with SK-MEL-28, in the assay with RXF 393 and with NCI-H460 was > 100 µM (inactive) each time. For the same compound, the GI50 in the assay on NCI-H23, in the assay with UO-31, in the assay with SF-268, with M14, in the assay with U-251 and in the assay with HOP-62 was > 100 µM (inactive) in each case. For the same compound, the GI50 with SN12C is > 100 µM (inactive).
Turning to `COc1cc(/C=C/c2ccccn2)cc(OC)c1OC`, the GI50 with SNB-75 was 7.78 µM (inactive); with OVCAR-4 it was > 10 µM (inactive); in the assay with K562, > 10 µM (inactive); in the assay with BT-549 it was > 10 µM (inactive); with MDA-MB-231, > 10 µM (inactive); with SF-539 it was > 10 µM (inactive). Further, the GI50 in the assay on HCC 2998, in the assay on MDA-N, with UACC-257, in the assay with SK-MEL-28, with RXF 393 and with NCI-H460 was > 10 µM (inactive) each time. Besides, the GI50 in the assay with NCI-H23, with UO-31, in the assay with SF-268, in the assay on M14, in the assay on U-251 and in the assay on HOP-62 was > 10 µM (inactive) each time. In addition, the GI50 in the assay on SN12C was > 10 µM (inactive).
On to `NCCNCCCCCCNC(=O)c1cccc2cc3ccccc3nc12`, for which the GI50 in the assay on SNB-75 is 3.94 µM (inactive); in the assay with OVCAR-4, 2.02 µM (inactive); in the assay with K562 it was 2.06 µM (inactive); with BT-549 it was 11.4 µM (inactive); in the assay on MDA-MB-231, 2.34 µM (inactive); in the assay with SF-539, 1.93 µM (inactive). Moreover, the GI50 in the assay on HCC 2998 was 2.14 µM (inactive); in the assay on MDA-N it was 2.7 µM (inactive); in the assay with UACC-257 it was 6.1 µM (inactive); with SK-MEL-28 it was 5.65 µM (inactive); in the assay with RXF 393, 3.95 µM (inactive); in the assay with NCI-H460, 0.871 µM (active). Besides, the GI50 is 2.07 µM (inactive) in the assay with NCI-H23; 5.66 µM (inactive) with UO-31; 2.72 µM (inactive) in the assay on SF-268; 1.92 µM (inactive) with M14; 1.64 µM (inactive) in the assay on U-251; 2 µM (inactive) in the assay on HOP-62. For the same compound, the GI50 with SN12C was 2.42 µM (inactive).
With `COc1cc2c[n+](C)c3c(c2cc1OC)Cc1cc2c(cc1-3)OCO2`, the GI50 in the assay on SNB-75 is > 100 µM (inactive); in the assay on OVCAR-4, 87.3 µM (inactive); with K562, > 100 µM (inactive); with BT-549, 90.2 µM (inactive); with MDA-MB-231, > 100 µM (inactive); with SR, 29.1 µM (inactive). Besides, the GI50 with SF-539, with MDA-N, with UACC-257, with SK-MEL-28, in the assay on NCI-H23 and with UO-31 was > 100 µM (inactive) each time. In addition, the GI50 in the assay on SF-268, with M14, with U-251, in the assay with HOP-62 and in the assay on SN12C was > 100 µM (inactive) each time.
